Earlier results on one compound are cited in patent US20210400960A1, “INSECT REPELLENT COMPOSITION” (Mother Earth Dermatics (MED) GMBH, priority 2018, published 2021).

The subject of the data set is insects. As to conditions: depending on the concentration.

Take `CCN(CC)C(=O)c1cccc(C)c1` [DEET, N,N-diethyl-m-toluamide]: the “Duration of repellent effect” value was 6 to 8 h.
